Test [1] deals with collagen-induced arthritis (CIA) model DBA/1J mice. The test is described as follows: Collagen-induced arthritis (CIA) model. It is filed as in vivo, mouse. The procedure:
Specifically, chicken collagen type II (Sigma-Aldrich Co. LLC) and complete Freund's adjuvant (Sigma-Aldrich Co. LLC.) were mixed at 1:1 and emulsified. Then, 100 μg of the emulsified collagen solution was injected intradermally into the mouse tail to induce primary immunization, which was designated day 0. After 14 days of the primary immunization, the emulsified collagen solution was injected again intradermally into the mouse tail to induce secondary immunization (boosting).
These plans included a total of seven experimental groups (n=8) and named as follows: (1) Non-treated, normal group (normal); (2) control (vehicle-treated) (CIA, n=8); (3) 2.5 nmol/g TIP1-treated group (CIA-TIP1 (2.5 nmol/g)); (4) 5 nmol/g TIP1-treated group (CIA-TIP1 (5 nmol/g)); (5) 10 nmol/g TIP1-treated group (CIA-TIP1 (10 nmol/g)); (6) 5 μg/g prednisolone (conventional therapeutic agent for arthritis)-treated group (CIA-prednisolone (5 μg/g)); (7) 10 nmol/g TIP1-treated group in post-arthritis phase (PAP) (PAP CIA-TIP1 (10 nmol/g)). TIP1 and prednisolone were dissolved in saline and injected intraperitoneally. Then, changes in behavioral development and disorders such as apparent symptoms and body weight, mouse squeaking, foot volume, and arthritis index were analyzed. The results are illustrated in FIGS. 19(a) and 19(b) and 20(a)-20(d).
Then, the mice were sacrificed on day 45 and joint tissues were sampled. Subsequently, 3D images and bone mineral density (BMD) of the joint tissues were analyzed through micro-computed tomography (Micro-CT). […] The results are illustrated in FIGS. 21 and 22.

In test [2] the test system is RAW 264.7 cells (LPS-induced TLR4 signaling). The experiment in a line: Cytokine secretion (ELISA) in LPS-treated RAW 264.7 cells. The format is cell-based, mouse. Particulars: TIP1 and LPS. The protocol: RAW 264.7 cells, THP1 cells, and mBMDM cells were dispensed into 96-well plates to a cell number of 2×10^5 cells/well, or into 24-well plates to a cell number of 5×10^5 cells/well. Incubation was performed overnight. Subsequently, combined treatment with TIP1 and LPS was performed. After 24 hours, secretion levels of IFN-β, IL-6, and TNF-α were measured using a […] (BioLegend), Mouse IL-6 Platinum ELISA (eBiosciences), and a Mouse TNF alpha ELISA Ready SET-Go! kit (eBiosciences). Absorbance was measured at 450 nm using a microplate reader spectrophotometer (Molecular Devices), and the results were analyzed using Softmax Pro 5.3 software (Molecular Devices Inc.).
TNF-α, IL-6, IFN-β levels in the culture supernatant of RAW 264.7 cells were measured using mouse TNF-α, IL-6, IFN-β Ready-SET-Go! ELISA kits according to the method described in Example 2-5. The results are illustrated in FIGS. 4(a)-4(c).
Background: An ELISA detects its analyte on a solid surface through an enzyme-linked reagent.

The subject of test [3] is NLRP3 inflammasome. The experiment in a line: IL-1β secretion (ELISA) in LPS/ATP-treated mBMDM cells. It is filed as cell-based, mouse. As to conditions: TIP1 and LPS/ATP.
Test [4] deals with T1, BB-loop and C-terminal region of the TIR domain of TLR4 (Homo sapiens, UniProt O00206).
T1 construct: purchased Peptron, Inc; host or cells: chemical synthesis
The experiment in a line: Surface plasmon resonance (SPR) assay. It is filed as binding. As to conditions: conclusion of Experimental Example 8; no SPR constants printed. The procedure: Surface plasmon resonance assay was performed using a ProteOn XPR36 instrument (Bio-Rad Laboratories, Inc.) with a ProteOn NLC sensor chip. Specifically, a synthetic peptide encoding BB-loop ([…]) (SEQ ID NO: 54) and C-terminal region ([…]) (SEQ ID NO: 55) of the TIR domain was immobilized on the surface of the NLC sensor chip using NeutrAvidin bound to the GLC polymer layer. For a control, PBS supplemented with 0.05% Tween 20, which is a running buffer, was flowed. […] After the measurement, the surface of the sensor chip was regenerated using 0.85% phosphoric acid or PBST. […] The equilibrium dissociation constant KD was calculated using the equation KD=Kd/Ka.

Test [5] has as its system renal tissue of LPS-treated mice. The test is described as follows: Renal apoptosis by TUNEL staining in LPS-treated mice. As to conditions: TIP1 and LPS, 24 hours. The format is in vivo, mouse. The procedure: Subsequently, renal tissues were isolated and weighed using an electronic balance (ER-180A, A&D Company, Tokyo, Japan); and then, cut into sagittal planes to make slices. The slices were left overnight in a 10% formalin solution, and then solidified by pouring of paraffin wax. The resultant was made into thin sections of 4 μm using a microtome and fixed. […] The images were analyzed using Zen 2009 software (Carl Zeiss MicroImaging GmbH.). The results are illustrated in FIG. 17.

Where [6] appears, read: TIP1 2.5, 5, 10 nmol/g i.p. daily, compared with prednisolone 5 mg/kg.

The values that follow come from patent US11352399B2, “Peptide for toll-like receptor (TLR) inhibition and pharmaceutical composition comprising same” (GENESEN CO., LTD., priority 2017, dated 2022).

On to RQIKIWFQNRRMKWKKSHCRVLLI (TIP1), for which, in test [1] (setting [6]), the arthritis index increase entry is reported as “inhibited”, the “body weight loss caused by induction of arthritis” value was “inhibited”, the foot volume entry is recorded as “inhibited” and the squeaking entry is reported as “inhibited”. The “severely swollen foot (visual observation)” value in test [1] (TIP1 i.p., FIG. 19(b)) is “alleviated similarly to the normal mice”. Also, in test [1] (knee joint, once daily for 30 days), the “histopathological modification in cartilage, subchondral bone, femur, tibia and meniscus (H&E)” value was “decreased”. Also, the “bones damaged by the CIA model (Micro-CT 3D image, bone mineral density)” value in test [1] (once daily for 30 days, sacrificed day 45) is “alleviated similarly to the normal mice”. Also, in test [2], the “secretion of IFN-β” value is recorded as “decreased in a concentration-dependent manner”, the “secretion of IL-6” value is recorded as “decreased in a concentration-dependent manner” and the “secretion of TNF-α” value is “decreased in a concentration-dependent manner”. In test [3], the “secretion level of IL-1β” value is on record as “decreased”. Also, the “binding to TIR domain regions of TLR4” value in test [4] was “binding to the C-terminal tail and the BB loop among the TIR domains of TLR4”. In addition, the “apoptosis in renal tissue (TUNEL-positive cells)” value in test [5] is given as “decreased”.
